Assay [1] addresses T1, ALK2 R206H (GST-tagged mutant ALK2) (Homo sapiens, UniProt Q04771, R206H).
T1 construct: purchased Carna Bioscience or ThermoFisher 09-148 or PV6232
T1 sequence (Q04771 21-509 R206H): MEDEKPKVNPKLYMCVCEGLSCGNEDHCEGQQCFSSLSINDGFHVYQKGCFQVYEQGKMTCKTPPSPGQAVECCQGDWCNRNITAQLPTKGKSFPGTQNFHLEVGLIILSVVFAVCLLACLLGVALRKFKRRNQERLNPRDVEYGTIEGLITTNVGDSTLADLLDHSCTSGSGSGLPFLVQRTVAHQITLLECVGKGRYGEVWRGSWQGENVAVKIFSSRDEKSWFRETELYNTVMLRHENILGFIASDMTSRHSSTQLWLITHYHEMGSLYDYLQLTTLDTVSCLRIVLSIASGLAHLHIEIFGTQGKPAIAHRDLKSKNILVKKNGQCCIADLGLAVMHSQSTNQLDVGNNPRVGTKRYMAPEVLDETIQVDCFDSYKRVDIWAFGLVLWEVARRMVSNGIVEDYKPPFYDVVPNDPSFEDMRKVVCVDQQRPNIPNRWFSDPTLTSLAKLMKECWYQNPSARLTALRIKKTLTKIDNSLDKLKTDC
Briefly: ALK binding assay (LANTHASCREEN TR-FRET competitive binding, displacement of Kinase Tracer 178). Particulars: ALK2 R206H, LANTHASCREEN TR-FRET competitive binding; read-out: Binding Assay (IC50).

In assay [2] the target is T2, human ALK2 R206H (Homo sapiens, UniProt Q04771, R206H).
T2 construct: expressed in transfected cells; host or cells: HEK293 (ATCC CRL1573), lentivirus transduction, blasticidin selection
T2 sequence (Q04771 21-509 R206H): T1 sequence (Q04771 21-509 R206H)
Briefly: Cell-based ALK2-R206H cell activity assay (Smad1-Ser463/Ser465 phosphorylation by AlphaLISA in HEK293-ALK2-R206H cells). The note with it: read-out: Cell Line (Cell Assay IC50). A digest of the protocol:
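Stable HEK293 cells expressing C-terminally FLAG-tagged human ALK2 R206H (lentiviral, blasticidin-selected) were treated with compounds in 10-point, 3-fold dilutions from 10 μM or 1 μM top, in duplicate. Smad1 Ser463/Ser465 phosphorylation was read by AlphaLISA.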

37 molecules from US10233186B2, “Inhibitors of activin receptor-like kinase” (BLUEPRINT MEDICINES CORPORATION, priority 2016, dated 2019) can be followed below.

As for `[2H]C([2H])([2H])C([2H])([2H])N1CCN(c2ccc(-c3cc4c(N5CCN(C(=O)C6CC6)CC5)ccnn4c3)cc2)CC1` [Compound 237], the IC50 was less than 10 nM in assay [1] and less than 100 nM in assay [2].

With `O=C(C1CCC1)N1CCN(c2ccnn3cc(-c4ccc(N5CCNCC5)cc4)cc23)CC1` [Compound 154], the IC50 in assay [1] is less than 10 nM; in assay [2], 100 to 500 nM.

Consider `CC(C)NC(=O)N1CCN(c2ccnn3cc(-c4ccc([C@]5(C)CN(C(C)C)CCN5C)cc4)cc23)CC1` [Compound 671], for which the IC50 was less than 10 nM in assay [1] and less than 100 nM in assay [2].

Turning to `CCOC1(c2ccc(-c3cc4c(N5CCN(C(=O)O[C@H](C)CF)CC5)ccnn4c3)nc2)CCN(C(C)C)CC1` [Compound 864], the IC50 is less than 10 nM in assay [1] and less than 100 nM in assay [2].

Take `O=C(C1CC1)N1CCN(c2ccnn3cc(-c4ccc(C56CCN(CC5)CC6)cc4)cc23)CC1` [Compound 482]: the IC50 was less than 10 nM in assay [1] and less than 100 nM in assay [2].

In the case of `CC(C)NC(=O)N1CCN(c2ccnn3cc(-c4ccc([C@@]5(O)CCN(C(C)C)C5)cn4)cc23)CC1` [Compound 608], the IC50 in assay [1] was less than 10 nM; in assay [2], 100 to 500 nM.

`CCNC(=O)N1CCN(c2ccnn3cc(-c4ccc(C5(OCC)CCN(C(C)C)CC5)cc4)cc23)CC1` [Compound 675]: the IC50 in assay [1] was less than 10 nM; in assay [2] it was less than 100 nM.

As to `CC(C)N1CCC(c2ccc(-c3cc4c(N5CCN(C(=O)C6CC6)CC5)ccnn4c3)cc2)(C(F)(F)F)CC1` [Compound 727], the IC50 in assay [1] is less than 10 nM; in assay [2], less than 100 nM.

As for `CC(C)N1CCC[C@H](c2ccc(-c3cc4c(N5CCN(C(=O)[C@H]6C[C@H](C#N)C6)CC5)ccnn4c3)cc2)C1` [Compound 409], the IC50 is less than 10 nM in assay [1] and less than 100 nM in assay [2].

On to `CCC(C)N1CCC[C@@H](c2ccc(-c3cc4c(N5CCN(C(=O)C6CC6)CC5)ccnn4c3)cc2)C1` (some centres unmarked) [Compound 560], for which the values for the IC50 in assay [1] and in assay [2] were less than 10 nM and less than 100 nM, respectively.

In the case of `CCCNC(=O)N1CCN(c2ccnn3cc(-c4ccc(C5CCN(C(C)C)CC5)cc4)cc23)CC1` [Compound 341], the IC50 in assay [1] was less than 10 nM; in assay [2], less than 100 nM.

Turning to `C[C@H]1CNC[C@H](c2ccc(-c3cc4c(N5CCN(C(=O)C6CC6)CC5)ccnn4c3)cc2)O1` [Compound 169], the results for the IC50 in assay [1] and in assay [2] were less than 10 nM and 100 to 500 nM, respectively.

On to `CC(C)N1CCC[C@H]1c1ccc(-c2cc3c(N4CCN(C(=O)C5CC5)CC4)ccnn3c2)cn1` [Compound 484], for which the IC50 is less than 10 nM in assay [1] and less than 100 nM in assay [2].

`CCOC(=O)N1CCN(c2ccnn3cc(-c4ccc(C5CCN(C(C)C)CC5)c(F)c4)cc23)CC1` [Compound 357]: the 50% inhibitory concentration (IC50) in assay [1] is less than 10 nM; in assay [2], less than 100 nM.

`COC[C@@H](C)N1CCC(OC)(c2ccc(-c3cc4c(N5CCN(C(=O)OC6COC6)CC5)ccnn4c3)nc2)CC1` [Compound 744]: the IC50 in assay [1] is less than 10 nM; in assay [2], less than 100 nM.

Turning to `COC1(c2ccc(-c3cc4c(N5CCN(C(=O)OC6COC6)CC5)ccnn4c3)nc2)CCN(C(C)CF)CC1` (centres unmarked) [Compound 863], the IC50 in assay [1] was less than 10 nM; in assay [2], less than 100 nM.

On to `C[C@@H]1CN(c2ccc(-c3cc4c(N5CCN(C(=O)C6CC6)CC5)ccnn4c3)cc2)CCN1` [Compound 155], for which the IC50 in assay [1] was less than 10 nM; in assay [2], 100 to 500 nM.

In the case of `CC(C)N1CC(F)C(c2ccc(-c3cc4c(N5CCN(C(=O)C6CC6)CC5)ccnn4c3)cc2)C1` (centres unmarked) [Compound 282], the IC50 was less than 10 nM in assay [1] and less than 100 nM in assay [2].

On to `CCN1CCC(COc2ccc(-c3cc4c(N5CCN(C(=O)C6CC6)CC5)ccnn4c3)cc2)C1` (centres unmarked) [Compound 270], for which the IC50 is less than 10 nM in assay [1] and less than 100 nM in assay [2].

Turning to `CCN1CCC(Oc2ccc(-c3cc4c(N5CCN(C(=O)C6CC6)CC5)ccnn4c3)cc2)CC1` [Compound 268], the IC50 in assay [1] lay in the range of 10 to 50 nM; in assay [2], 100 to 500 nM.

In the case of `CCOC(=O)N1CCN(c2ccnn3cc(-c4ccc([C@@H]5CCCN(C(C)C)C5)cc4)cc23)CC1` [Compound 287], the IC50 is less than 10 nM in assay [1] and less than 100 nM in assay [2].

With `CCN1CCOC(c2ccc(-c3cc4c(N5CCN(C(=O)C6CC6)CC5)ccnn4c3)cc2)C1` (centres unmarked) [Compound 214, cyclopropyl(4-(6-(4-(4-ethylmorpholin-2-yl)phenyl)pyrrolo[1,2-b]pyridazin-4-yl)piperazin-1-yl)methanone], the results for the IC50 in assay [1] and in assay [2] were 10 to 50 nM and 100 to 500 nM, respectively.

In the case of `CCNC(=O)N1CCN(c2ccnn3cc(-c4ccc([C@@]5(F)CCCNC5)cc4)cc23)CC1` [Compound 189], the IC50 in assay [1] was less than 10 nM; in assay [2] it was less than 100 nM.

For `CCNC(=O)N1CCN(c2ccnn3cc(-c4ccc([C@]5(OC)CCCN(C(C)C)C5)c(F)c4)cc23)CC1` [Compound 699], the IC50 in assay [1] is less than 10 nM; in assay [2], less than 100 nM.

Take `CC(C)N[C@@H](CO)c1ccc(-c2cc3c(N4CCN(C(=O)C5CC5)CC4)ccnn3c2)cc1` [Compound 770]: the IC50 is less than 10 nM in assay [1] and less than 100 nM in assay [2].

For `O=C(OC1COC1)N1CCN(c2ccnn3cc(-c4ccc([C@]5(F)CCCNC5)cc4)cc23)CC1` [Compound 558], the IC50 was less than 10 nM in assay [1] and less than 100 nM in assay [2].

With `CCOC1(c2ccc(-c3cc4c(N5CCN(C(=O)NC(C)C)CC5)ccnn4c3)cc2)CCN(C(C)C)CC1` [Compound 712], the results for the IC50 in assay [1] and in assay [2] were less than 10 nM and less than 100 nM, respectively.

Take `CC(C)N1CC(O)(c2ccc(-c3cc4c(N5CCN(C(=O)C6CC6)CC5)ccnn4c3)cc2)C1` [Compound 219]: the IC50 in assay [1] was less than 10 nM; in assay [2] it was less than 100 nM.

For `CCOC(=O)N1CCN(c2ccnn3cc(-c4ccc(C5CCN(CC)CC5)cc4)cc23)C[C@H]1C` [Compound 286], the IC50 in assay [1] was less than 10 nM; in assay [2], 100 to 500 nM.

Turning to `COC1(c2ccc(-c3cc4c(N5CCN(C(=O)OC6COC6)CC5)ccnn4c3)nc2)CCNCC1` [Compound 609], the IC50 in assay [1] is less than 10 nM; in assay [2], less than 100 nM.

Take `NC1(c2ccc(-c3cc4c(N5CCN(C(=O)C6CC6)CC5)ccnn4c3)cc2)CCOCC1` [Compound 768]: the IC50 in assay [1] was less than 10 nM; in assay [2] it was less than 100 nM.

With `CCNC(=O)N1CCN(c2ccnn3cc(-c4ccc(C5(OC)CCN(C(C)C)CC5)cn4)cc23)CC1` [Compound 644], the IC50 in assay [1] was less than 10 nM; in assay [2], less than 100 nM.

With `CC(C)N1CCC(c2ccc(-c3cc4c(N5CCN(C(=O)C6CC6)CC5)ccnn4c3)cn2)CC1` [Compound 267], the concentration for half-maximal inhibition (IC50) in assay [1] is less than 10 nM; in assay [2] it was less than 100 nM.

On to `CCOC1(c2ccc(-c3cc4c(N5CCN(C(=O)OC6COC6)CC5)ccnn4c3)cc2)CCN(C(C)C)CC1` [Compound 857], for which the IC50 in assay [1] is less than 10 nM; in assay [2], less than 100 nM.

In the case of `CC(C)N1CCC[C@@H](c2ccc(-c3cc4c(N5CCN(C(=O)OC6(C)COC6)CC5)ccnn4c3)cc2)C1` [Compound 827], the IC50 is less than 10 nM in assay [1] and 100 to 500 nM in assay [2].

Take `CCOC(=O)N1CCN(c2ccnn3cc(-c4ccc(N5CCN(C(C)C)CC5)cc4)cc23)CC1` [Compound 295]: the IC50 is less than 10 nM in assay [1] and less than 100 nM in assay [2].

Take `CCOC1(c2ccc(-c3cc4c(N5CCN(C(=O)OC[C@H](C)F)CC5)ccnn4c3)nc2)CCN(C(C)C)CC1` [Compound 865]: the IC50 was less than 10 nM in assay [1] and less than 100 nM in assay [2].

In general, IC50 refers to the concentration at which inhibition is half-maximal.
